Test results reported in patent US9232796B2, “Herbicidal compositions comprising 4-amino-3-chloro-5-fluoro-6-(4-chloro-2-fluoro-3-methoxyphenyl) pyridine-2-carboxylic acid or a derivative thereof and acetyl-CoA carboxylase (ACCase) inhibitors” (DOW AGROSCIENCES LLC, priority 2012, dated 2016).

Key:
ECHCG = assay: Example I postemergence foliar-applied, greenhouse, direct seeded rice weeds; format: in vivo, Echinochloa crusgalli (L.) Beauv.
From the text: Seeds or nutlets of the desired test plant species were planted in a soil matrix prepared by mixing a loam or sandy loam soil (e.g., 28.6 percent silt, 18.8 percent clay, and 52.6 percent sand, with a pH of about 5.8 and an organic matter content of about 1.8 percent) and calcareous grit in an 80 to 20 ratio. The soil matrix was contained in plastic pots with a volume of 1 quart and a surface area of 83.6 square centimeters (cm^2). When required to ensure good germination and healthy plants, a fungicide treatment and/or other chemical or physical treatment was applied. The plants were grown for 8-22 days in a greenhouse with an approximate 14 hr. photoperiod which was maintained at about 29° C. during the day and 26° C. during the night. Nutrients (Peters Excel® 15-5-15 5-Ca 2-Mg and iron chelate) were applied in the irrigation solution as needed and water was added on a regular basis. Supplemental lighting was provided with overhead metal halide 1000-Watt lamps as necessary. The plants were employed for testing when they reached the first through fourth true leaf stage.
Treatments consisted of the acid or esters of 4-amino-3-chloro-5-fluoro-6-(4-chloro-2-fluoro-3-methoxy-phenyl)pyridine-2-carboxylic acid (Compound A), each formulated as an SC (suspension concentrate), and various herbicidal components alone and in combination.
Other herbicidal components were applied on an acid equivalent (ae) or active ingredient (ai) basis and included acetyl coA carboxylase (ACCase)-inhibiting herbicides (cyclohexanedione and aryloxyphenoxypropionate chemical classes) cyhalofop-butyl formulated as Clincher® SF (285 gr ai/L EC), diclofop-methyl formulated as Hoelon® 3EC, fenoxaprop-p-ethyl+isoxadifen-ethyl formulated as RiceStar® HT (0.58 lb./gal EC), fenoxaprop-p-ethyl+mefenpyr diethyl formulated as Puma® IEC, metamifop formulated as Metamifop EC, haloxyfop-methyl formulated as Gallant Super®, fluazifop-p-butyl formulated as Fusilade® DX, quizalofop-p-ethyl formulated as Assure® II, profoxydim formulated as Aura® 20EC, clethodim applied as Intensity®, sethoxydim formulated as Poast®, and tralkoxydim formulated as Achieve®.
Treatment requirements were calculated based upon the rates being tested, the concentration of active ingredient or acid equivalent in the formulation, and a 12 mL application volume at a rate of 187 L/ha.
For treatments comprised of formulated compounds, measured amounts of compounds were placed individually in 25 mL glass vials and diluted in a volume of 1.25% (v/v) Agri-Dex® crop oil concentrated to obtain 12× stock solutions. […] Application solutions were prepared by adding an appropriate amount of each stock solution (e.g., 1 mL) and diluted to the appropriate final concentrations with the addition of 10 mL of an aqueous mixture of 1.25% (v/v) crop oil concentrate so that the final spray solutions contained 1.25+/−0.05% (v/v) crop oil concentrate.
All stock solutions and applications solutions were visually inspected for compound compatibility prior to application. Spray solutions were applied to the plant material with an overhead Mandel track sprayer equipped with a 8002E nozzles calibrated to deliver 187 L/ha over an application area of 0.503 m^2 at a spray height of 18 to 20 inches (46 to 50 cm) above average plant canopy height. Control plants were sprayed in the same manner with the solvent blank.
The treated plants and control plants were placed in a greenhouse as described above and watered by sub-irrigation to prevent wash-off of the test compounds. After approximately 3 weeks, the condition of the test plants as compared with that of the untreated plants was determined visually and scored on a scale of 0 to 100 percent where 0 corresponds to no injury or growth inhibition and 100 corresponds to complete kill. […]

SCPJU = assay: Example II in-water applied, greenhouse, transplanted paddy rice weeds; format: in vivo, Schoenoplectus juncoides (Roxb.) Palla
Method: (§1) Weed seeds or nutlets of the desired test plant species were planted in puddled soil (mud) prepared by mixing a shredded, non-sterilized mineral soil (50.5 percent silt, 25.5 percent clay, and 24 percent sand, with a pH of about 7.6 and an organic matter content of about 2.9 percent) and water at a 1:1 volumetric ratio. The prepared mud was dispensed in 365 mL aliquots into 16-ounce (oz.) non-perforated plastic pots with a surface area of 86.59 square centimeters (cm^2) leaving a headspace of 3 centimeters (cm) in each pot. Mud was allowed to dry overnight prior to planting or transplanting. Rice seeds were planted in Sun Gro MetroMix® 306 planting mixture, which typically has a pH of 6.0 to 6.8 and an organic matter content of about 30 percent, in plastic plug trays. Seedlings at the second or third leaf stage of growth were transplanted into 860 mL of mud contained in 32-oz. non-perforated plastic pots with a surface area of 86.59 cm^2 4 days prior to herbicide application. The paddy was created by filling the headspace of the pots with 2.5 to 3 cm of water. […] The plants were grown for 4-22 days in a greenhouse with an approximate 14 hr. photoperiod which was maintained at about 29° C. during the day and 26° C. during the night. Nutrients were added as Osmocote® (19:6:12, N:P:K+minor nutrients) at 2 g per 16-oz. pot and 4 g per 32-oz. pot. Water was added on a regular basis to maintain the paddy flood, and supplemental lighting was provided with overhead metal halide 1000-Watt lamps as necessary. The plants were employed for testing when they reached the first through fourth true leaf stage.
(§2) Treatments consisted of the acid or esters of 4-amino-3-chloro-5-fluoro-6-(4-chloro-2-fluoro-3-methoxy-phenyl)pyridine-2-carboxylic acid (compound A) each formulated as an SC (suspension concentrate) and various herbicidal components alone and in combination.
(§3) For formulated compounds, a measured amount was placed in an individual 100 or 200 mL glass vial and was dissolved in a volume of 1.25% (v/v) Agri-Dex® crop oil concentrate to obtain application solutions.
(§4) Applications were made by injecting with a pipetter appropriate amounts of the application solutions, individually and sequentially, into the aqueous layer of the paddy. Control plants were treated in the same manner with the solvent blank. Applications were made so that all treated plant material received the same concentrations of acetone and crop oil concentrate.
(§5) The treated plants and control plants were placed in a greenhouse as described above and water was added as needed to maintain a paddy flood. After approximately 3 weeks the condition of the test plants as compared with that of the untreated plants was determined visually and scored on a scale of 0 to 100 percent where 0 corresponds to no injury or growth inhibition and 100 corresponds to complete kill.
(§6) Colby's equation was used to determine the herbicidal effects expected from the mixtures (Colby, S. R. 1967. Calculation of the synergistic and antagonistic response of herbicide combinations. Weeds 15:20-22.).
(§7) The following equation was used to calculate the expected activity of mixtures containing two active ingredients, A and B: Expected=A+B−(A×B/100)

LEFCH = assay: as above; format: in vivo, Leptochloa chinensis (L.) Nees
Method: as §1, §2, §3, §4, §5, §6, §7

CYPRO = assay: as above; format: in vivo, Cyperus rotundus L.
Method: as §1, §2, §3, §4, §5, §6, §7

SMILES: C[C@@H](Oc1ccc(Oc2nc3ccc(Cl)cc3o2)cc1)C(=O)N(C)c1ccccc1F [Metamifop, (2R)-2-[4-[(6-chloro-2-benzoxazolyl)oxy]phenoxy]-N-(2-fluorophenyl)-N-methylpropanamide]
- Visual Weed Control (%) - 22 DAA ECHCG Obs (ECHCG; 9.38 gai/ha): 0%
- Visual Weed Control (%) - 22 DAA ECHCG Obs (ECHCG; 18.75 gai/ha): 40%
- Visual Weed Control (%) - 22 DAA ECHCG Obs (ECHCG; 37.5 gai/ha): 70%
- Visual Weed Control (%) - 21 DAA SCPJU Obs (SCPJU; in-water, 75 gai/ha): 0%
- Visual Weed Control (%) - 21 DAA SCPJU Obs (SCPJU; in-water, 150 gai/ha): 0%

SMILES: CCCCOC(=O)[C@@H](C)Oc1ccc(Oc2ccc(C#N)cc2F)cc1 [Cyhalofop-butyl, butyl(2R)-2-[4-(4-cyano-2-fluorophenoxy)phenoxy]propanoate, reference compound]
- Visual Weed Control (%) - 25 DAA SCPJU Obs (SCPJU; 90 gai/ha, in-water): 0%
- Visual Weed Control (%) - 25 DAA SCPJU Obs (SCPJU; 180 gai/ha, in-water): 0%
- Visual Weed Control (%) - 19 DAA LEFCH Obs (LEFCH; 180 gai/ha, in-water): 75%

SMILES: COc1c(Cl)ccc(-c2nc(C(=O)O)c(Cl)c(N)c2F)c1F [Compound A Acid, 4-amino-3-chloro-6-(4-chloro-2-fluoro-3-methoxyphenyl)-5-fluoropyridine-2-carboxylic acid]
- Visual Weed Control (%) - 25 DAA SCPJU Obs (SCPJU; 8.75 gae/ha in-water): 65%
- Visual Weed Control (%) - 25 DAA SCPJU Obs (SCPJU; 17.5 gae/ha in-water): 80%
- Visual Weed Control (%) - 25 DAA SCPJU Obs (SCPJU; 35 gae/ha in-water): 95%
- Visual Weed Control (%) - 20 DAA SCPJU Obs (SCPJU; in-water, 8.75 gae/ha): 70%
- Visual Weed Control (%) - 21 DAA SCPJU Obs (SCPJU; in-water, 8.75 gae/ha): 65%
- Visual Weed Control (%) - 22 DAA SCPJU Obs (SCPJU; in-water, 16 gae/ha): 70%
- Visual Weed Control (%) - 20 DAA SCPJU Obs (SCPJU; in-water, 17.5 gae/ha): 95%
- Visual Weed Control (%) - 21 DAA SCPJU Obs (SCPJU; in-water, 17.5 gae/ha): 90%
- Visual Weed Control (%) - 20 DAA SCPJU Obs (SCPJU; in-water, 35 gae/ha): 95%
- Visual Weed Control (%) - 21 DAA CYPRO Obs (CYPRO; 8.75 gae/ha): 0%
- Visual Weed Control (%) - 21 DAA CYPRO Obs (CYPRO; Compound A Acid 8.75 gae/ha): 0%
- Visual Weed Control (%) - 21 DAA CYPRO Obs (CYPRO; Compound A Acid 17.5 gae/ha): 30%
- Visual Weed Control (%) - 21 DAA CYPRO Obs (CYPRO; Compound A Acid 35 gae/ha): 85%
- Visual Weed Control (%) - 19 DAA LEFCH Obs (LEFCH; 42.4 gae/ha in-water): 10%
- Visual Weed Control (%) - 21 DAA LEFCH Obs (LEFCH; in-water, 17.5 gae/ha): 0%
- Visual Weed Control (%) - 21 DAA LEFCH Obs (LEFCH; in-water, 35 gae/ha): 20%

SMILES: COc1c(Cl)ccc(-c2nc(C(=O)OCc3ccccc3)c(Cl)c(N)c2F)c1F [Compound A Benzyl Ester, benzyl ester of 4-amino-3-chloro-5-fluoro-6-(4-chloro-2-fluoro-3-methoxy-phenyl)pyridine-2-carboxylic acid]
- Visual Weed Control (%) - 22 DAA ECHCG Obs (ECHCG; 8 gae/ha): 35%
- Visual Weed Control (%) - 22 DAA ECHCG Obs (ECHCG; 16 gae/ha): 65%
- Visual Weed Control (%) - 22 DAA ECHCG Obs (ECHCG; 32 gae/ha): 80%
- Visual Weed Control (%) - 21 DAA SCPJU Obs (SCPJU; in-water, 4.38 gae/ha): 70%
- Visual Weed Control (%) - 20 DAA CYPRO Obs (CYPRO; 4.38 gae/ha): 50%
- Visual Weed Control (%) - 21 DAA CYPRO Obs (CYPRO; 4.38 gae/ha): 20%
- Visual Weed Control (%) - 20 DAA CYPRO Obs (CYPRO; 8.75 gae/ha): 100%
- Visual Weed Control (%) - 20 DAA CYPRO Obs (CYPRO; 17.5 gae/ha): 100%

SMILES: CCC/C(=N\OCC(C)Oc1ccc(Cl)cc1)C1=C(O)CC(C2CCCSC2)CC1=O (stereo not drawn) [Profoxydim, 2-[1-[[2-(4-chlorophenoxy)propoxy]imino]butyl]-3-hydroxy-5-(tetrahydro-2H-thiopyran-3-yl)-2-cyclohexen-1-one, reference compound]
- Visual Weed Control (%) - 22 DAA SCPJU Obs (SCPJU; in-water, 50 gai/ha): 0%
- Visual Weed Control (%) - 22 DAA SCPJU Obs (SCPJU; in-water, 100 gai/ha): 0%
- Visual Weed Control (%) - 21 DAA LEFCH Obs (LEFCH; in-water, 25 gai/ha): 85%

SMILES: CCOC(=O)[C@@H](C)Oc1ccc(Oc2cnc3cc(Cl)ccc3n2)cc1 [Quizalofop-p-ethyl, ethyl(2R)-2-[4-[(6-chloro-2-quinoxalinyl)oxy]phenoxy]propanoate, reference compound]
- Visual Weed Control (%) - 22 DAA ECHCG Obs (ECHCG; 3.75 gai/ha): 20%
- Visual Weed Control (%) - 22 DAA ECHCG Obs (ECHCG; 7.5 gai/ha): 30%
- Visual Weed Control (%) - 21 DAA CYPRO Obs (CYPRO; 15 gai/ha): 0%
- Visual Weed Control (%) - 21 DAA CYPRO Obs (CYPRO; 30 gai/ha): 0%
